Here are results for 2 compounds from patent US7468178B2, “Methods for identifying compounds that modulate vigilance states” (Neurosciences Research Foundation, Inc., priority 1999, dated 2008).

The subject of series [1] is Drosophila.
Method: In order to monitor fly behavior, five-day old virgin female Canton-S Drosophila melanogaster were cultured at 25° C., 50-60% humidity, 12 hr:12 hr light:dark cycle, on brewer's yeast, dark corn syrup and agar food, following procedures modified from J. Bennett and D. L. van Dyke, Dros. […] Continuous, high-resolution measurement of fly behavior was achieved using an ultrasound activity monitoring system shown in FIG. 1A. Briefly, a 44 kHz standing wave was passed across an independent enclosure containing a single fly. An integrated circuit sampled a portion of each wave as a function of the transmit signal and compared it to the output from the receive signal for the same time-window. When the fly moved its mass within the field, it perturbed the standing wave and the resulting difference was counted as a movement. The output was sampled by a PC at 200 Hz, the data were summed in 2-sec bins and stored for later processing. This system detects very small movements in Drosophila's behavioral repertoire, including fine movements of the head, wings, and limbs. To monitor rest-activity patterns in large numbers of flies, an infrared Drosophila Activity Monitoring System was used (Trikinetics; described in M. Hamblen et al., J. Neurogen. 3:249 (1986)). To validate the system, flies were visually monitored for a total of 17.75 h (n=7). The number of times the fly crossed the infrared beam was counted in 5-minute bins. […] Drugs (caffeine or hydroxyzine) dissolved in food were continuously available to flies beginning in the final hour of the light period.
In series [2] the test system is Drosophila. The series is described as follows: Responsiveness to arousing stimuli (arousal threshold) in flies. To be noted: flies given drug in food. It is filed as in vivo, Drosophila melanogaster.
Method: In order to determine whether periods of rest are associated with increased arousal thresholds, flies were subjected to vibratory stimuli of increasing intensity (0.05 g, 0.1 g, and 6 g). In these experiments, flies were placed in glass tubes (65 mm in length, 5 mm I.D.) maintained on a hard plastic platform above a Grass speaker. The output of the speaker was controlled via a Beckman signal generator and the resulting vibration of the platform was measured with an accelerometer. Each fly received a stimulus each hour (total of 8 stimuli) of constant intensity. The behavioral state at the time of stimulus delivery and the ensuing response were videotaped and scored off-line.

Each structure is given as a SMILES string.

With `Cn1c(=O)c2c(ncn2C)n(C)c1=O` [caffeine], the motor activity result with Drosophila [1] (flies given drug in food from final hour of light period) is recorded as “increased”. For the same compound, the “amount of rest during the dark period” value in the series with Drosophila [1] (flies given drug in food from final hour of light period, FIG. 3C, n=36/dose, p<0.0001) was “decreased in a dose-dependent fashion”.

On to `OCCOCCN1CCN(C(c2ccccc2)c2ccc(Cl)cc2)CC1` (stereo not drawn) [hydroxyzine], for which the “rest during the first hour of the dark period” value with Drosophila [1] (flies given drug in food from final hour of light period, FIG. 3D, n=40/dose) is listed as “increased in a dose-dependent manner”. Also, the “latency to first dark period rest” value in the series with Drosophila [1] (flies given drug in food from final hour of light period, FIG. 3E, n=40/dose) was “decreased”. The “total amount of activity during the light period” value in the series on Drosophila [1] (in vivo) was “unchanged”. In addition, the “responsiveness to arousing stimuli” value in the series with Drosophila [2] is “preserved”.
